Assay results: US10988523B2, “Modified lipidated Relaxin B chain peptides and their therapeutic use” (Sanofi, priority 2018, dated 2021)
*1 amine or outer side, *2 acyl side, *3 side chain or, on linkers, in order; H or OH if unused. Where a SMILES comes first, the peptide text is derived from it. Side-chain parts run from the residue outwards. [ ]: non-standard residue; d: D form. The star is where a group is joined. PEG12 = NCCOCCOCCOCCOCCOCCOCCOCCOCCOCCOCCOCCOCCC(=O)O; Heptadecanoyl = CCCCCCCCCCCCCCCCC(=O)*; γGlu = O=C(O)[C@H](CCC(=O)[*:2])N[*:1]; Palmitoyl = CCCCCCCCCCCCCCCC(=O)*; Nle = CCCC[C@H](N)C(=O)O; AEEA = NCCOCCOCC(=O)O; Aib = CC(C)(N)C(=O)O

Biological target: T1, RXFP1 (Homo sapiens, UniProt Q9HBX9)
T1 construct: OVCAR5 cells expressing endogenous RXFP1; endogenous in cells; host or cells: OVCAR5 cells
T1 sequence (Q9HBX9 1-757): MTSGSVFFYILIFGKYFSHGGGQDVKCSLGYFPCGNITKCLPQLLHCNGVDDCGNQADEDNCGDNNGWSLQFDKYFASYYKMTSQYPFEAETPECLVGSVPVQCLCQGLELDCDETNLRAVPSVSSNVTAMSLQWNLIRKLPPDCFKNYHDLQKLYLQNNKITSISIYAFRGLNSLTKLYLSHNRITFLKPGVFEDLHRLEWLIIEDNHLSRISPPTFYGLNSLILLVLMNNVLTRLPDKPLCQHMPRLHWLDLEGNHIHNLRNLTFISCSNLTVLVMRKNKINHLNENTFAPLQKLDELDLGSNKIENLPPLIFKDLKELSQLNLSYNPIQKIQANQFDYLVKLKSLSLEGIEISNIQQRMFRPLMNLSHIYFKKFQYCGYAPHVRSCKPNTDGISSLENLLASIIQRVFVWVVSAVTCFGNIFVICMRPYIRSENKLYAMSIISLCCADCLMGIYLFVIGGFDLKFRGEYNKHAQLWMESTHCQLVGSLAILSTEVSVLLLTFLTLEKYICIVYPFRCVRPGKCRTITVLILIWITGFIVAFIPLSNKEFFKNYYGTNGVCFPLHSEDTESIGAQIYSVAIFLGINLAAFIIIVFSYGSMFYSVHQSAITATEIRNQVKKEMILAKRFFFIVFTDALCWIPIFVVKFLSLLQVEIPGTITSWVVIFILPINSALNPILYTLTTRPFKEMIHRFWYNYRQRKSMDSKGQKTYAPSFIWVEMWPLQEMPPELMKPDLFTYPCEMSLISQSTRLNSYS
Experiment: OVCAR5 cAMP assay (HTRF), RXFP1 agonist activity
Type: cell-based
Details: for Emax: OVCAR-5, maximal cAMP relative to H2-relaxin maximum (100%), read-out: EMax, OVCAR 5 cells (cAMP)
Outline: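 cAMP accumulation readout: after 1 mM IBMX for 40 min, endogenous-RXFP1 OVCAR5 cells got rising peptide concentrations without FCS, 30 min, 37° C, then lysis with HTRF cAMP reagents. Nonlinear regression gave EC50; Emax expressed relative to H2-relaxin maximum, same occasion.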

| EC50 (OVCAR5 cells, cAMP HTRF, read-out: EC50 (nM), OVCAR 5 cells (cAMP)) | Emax | SMILES |
| --- | --- | --- |
| 1.21 nM | 95% | CCCCCCCCCCCCCCCC(=O)N[C@@H](CCC(=O)N[C@@H](CCC(=O)N[C@@H](CCC(=O)NCCCC[C@H](NC(=O)CCOCCOCCOCCOCCOCCOCCOCCOCCOCCOCCOCCOCCNC(=O)[C@H](CCCCN)NC(=O)[C@H](CCCNC(=N)N)NC(=O)C(C)(C)NC(=O)[C@H](CO)NC(=O)[C@H](Cc1c[nH]c2ccccc12)NC(=O)[C@@H](NC(=O)[C@H](CO)NC(=O)[C@H](CCSC)NC(=O)CNC(=O)[C@H](CCC(=O)O)NC(=O)C(C)(C)NC(=O)C(C)(C)NC(=O)[C@@H](NC(=O)[C@H](CCCCNC(C)=O)NC(=O)[C@H](C)NC(=O)[C@H](CCCNC(=N)N)NC(=O)[C@@H](NC(=O)[C@H](CCCCN)NC(=O)[C@H](CCC(=O)O)NC(=O)[C@H](CCCNC(=N)N)NC(=O)CNC(=O)[C@H](CCC(=O)O)NC(=O)[C@H](CC(C)C)NC(C)=O)C(C)C)[C@@H](C)CC)[C@@H](C)O)C(N)=O)C(=O)O)C(=O)O)C(=O)O [compound 25] (Ac-LEGREKVRAK(Ac)I[Aib][Aib]EGMSTWS[Aib]RK[PEG12]K([γGlu-γGlu-γGlu-Palmitoyl])-NH2) |
| – | 83% | CCCCCCCCCCCCCCCC(=O)N[C@@H](CCC(=O)N[C@@H](CCC(=O)N[C@@H](CCC(=O)NCCOCCOCCOCCOCCOCCOCCOCCOCCOCCOCCOCCOCCC(=O)NCCCC[C@H](NC(=O)[C@H](CCCCNC(C)=O)NC(=O)[C@H](CCCCN)NC(=O)[C@H](CCCNC(=N)N)NC(=O)C(C)(C)NC(=O)[C@H](CO)NC(=O)[C@H](Cc1c[nH]c2ccccc12)NC(=O)[C@@H](NC(=O)[C@H](CO)NC(=O)[C@H](CCCC)NC(=O)CNC(=O)[C@H](CCC(=O)O)NC(=O)C(C)(C)NC(=O)C(C)(C)NC(=O)[C@@H](NC(=O)[C@H](CCCCNC(C)=O)NC(=O)[C@H](C)NC(=O)[C@H](CCCNC(=N)N)NC(=O)[C@@H](NC(=O)[C@H](CCCCN)NC(=O)[C@H](CCC(=O)O)NC(=O)[C@H](CCCNC(=N)N)NC(=O)CNC(=O)[C@H](CCC(=O)O)NC(=O)[C@H](CC(C)C)NC(C)=O)C(C)C)[C@@H](C)CC)[C@@H](C)O)C(N)=O)C(=O)O)C(=O)O)C(=O)O [compound 66] (Ac-LEGREKVRAK(Ac)I[Aib][Aib]EG[Nle]STWS[Aib]RKK(Ac)K([PEG12-γGlu-γGlu-γGlu-Palmitoyl])-NH2) |
| – | 93% | CCCCCCCCCCCCCCCCC(=O)N[C@@H](CCC(=O)N[C@@H](CCC(=O)N[C@@H](CCC(=O)NCCOCCOCC(=O)NCCOCCOCC(=O)NCCOCCOCC(=O)NCCCC[C@H](NC(=O)[C@H](CCCCNC(C)=O)NC(=O)[C@H](CCCCN)NC(=O)[C@H](CCCNC(=N)N)NC(=O)C(C)(C)NC(=O)[C@H](CO)NC(=O)[C@H](Cc1c[nH]c2ccccc12)NC(=O)[C@@H](NC(=O)[C@H](CO)NC(=O)[C@H](CCCC)NC(=O)CNC(=O)[C@H](CCC(=O)O)NC(=O)C(C)(C)NC(=O)C(C)(C)NC(=O)[C@@H](NC(=O)[C@H](CCCCNC(C)=O)NC(=O)[C@H](C)NC(=O)[C@H](CCCNC(=N)N)NC(=O)[C@@H](NC(=O)[C@H](CCCCN)NC(=O)[C@H](CCC(=O)O)NC(=O)[C@H](CCCNC(=N)N)NC(=O)CNC(=O)[C@H](CCC(=O)O)NC(=O)[C@H](CC(C)C)NC(C)=O)C(C)C)[C@@H](C)CC)[C@@H](C)O)C(N)=O)C(=O)O)C(=O)O)C(=O)O [compound 164] (Ac-LEGREKVRAK(Ac)I[Aib][Aib]EG[Nle]STWS[Aib]RKK(Ac)K([AEEA-AEEA-AEEA-γGlu-γGlu-γGlu-Heptadecanoyl])-NH2) |
